Experimental findings from patent publication US9868734B2, “Conjugate of benzofuranone and indole or azaindole, and preparation and uses thereof” (Luoda Biosciences, Inc., priority 2013, dated 2018) are described below.

Read-outs that look alike come from different tables or passages of the source.

As usually defined, the IC50 is the concentration needed to halve the response being measured.

In experiment [1] the test system is human lung adenocarcinoma epithelial cell line A549. As to the kind of experiment: MTT assay, inhibition of tumor cell growth (A549). The format is cell-based. To be noted: 72 hours incubation, read-out: IC50 on the tumor cells A549. The method, then: (§1) human hepatocellular carcinoma cell line HepG-2, human lung adenocarcinoma epithelial cell line A549
(§2) Tumor cells were seeded in RPM11640 medium containing 10% calf serum, incubated at 37° C., 5% CO2 in CO2 incubator, and passaged every 2-3 days. Cells at logarithmic growth phase were used for this experiment.
(§3) The cells at logarithmic growth phase were formulated into suspension. The cell viability by trypan blue staining was more than 98%. The cell suspension was divided into several groups: 1 as blank control group (cell suspension plus solvent DMSO); and 2 as experimental groups (cell suspension plus compounds to be tested).
(§4) The drugs were formulated into a stock solution in DMSO, and the concentration of the stock solution was 20 mmol (used within 4 hours). In the experiment, the work solution of the drugs was diluted with RPMI1640 medium containing 10% calf serum under aseptic condition, to a final concentration of […]. The drug concentrations were increased by 2 times (1.25-20 μM).
(§5) The cells in logarithmic growth phase were selected, centrifuged, counted, and formulated into a cell suspension (2.5×10^4/ml) with RPMI1640 medium containing 10% calf serum. The cell suspension were inoculated into 96-well plates at a density of 5000 cells/200 μl per well, incubated for 24 hours at 37° C., 5% CO2. According to the above concentration of the drug, the cells were inoculated to 6 groups (including one control group), with 8 wells per group. After incubating for 72 hours, the viability of cells was measured by MTT assay. The absorbance value (A) was measured with detection wavelength at 540 nm, reference wavelength at 630 nm. The inhibitory rate (I) was calculated by the following equation, where T was the absorbance value of the experimental groups, and C was the absorbance value of the blank control group: I=(1−T/C)×100%
(§6) Equation of regression line was drawn from concentration-inhibitory rate curve, from which the IC50 of tested sample was calculated.
In general terms: Tetrazolium dyes change colour on reduction, which living cells bring about.

Experiment [2] relates to human hepatocellular carcinoma cell line HepG-2. Briefly: MTT assay, inhibition of tumor cell growth (HepG2). Conditions: 72 hours incubation, read-out: IC50 on the tumor cells HepG2. The format is cell-based. The method, then: as §1, §2, §3, §4, §5, §6

For `CON=C1C(=C2C(=O)N(Cc3ccccc3)c3ccccc32)Oc2ccccc21` [Compound 56, N1-benzyl-1′-oxo-indirubin-3′-oxime ether], the IC50 in experiment [1] turned out to be 7.1 ± 1.1 µM; in experiment [2] it was 2.7 ± 1.2 µM.
As for `CON=C1C(=C2C(=O)N(Cc3ccccc3)c3ccc(F)cc32)Oc2ccccc21` [Compound 57], the IC50 in experiment [1] is 6.9 ± 0.8 µM; in experiment [2], 3.1 ± 0.8 µM.
For `CON=C1C(=C2C(=O)N(Cc3ccccc3)c3ccc(Cl)cc32)Oc2ccccc21` [Compound 58], in that order: 12.1 ± 0.9 µM and 3.8 ± 1.5 µM.
Take `CCN1C(=O)C(=C2Oc3ccccc3C2=NOC)c2cc(F)ccc21` [Compound 59]: the figures for the IC50 in experiment [1] and in experiment [2] were 5 ± 0.9 µM and 3.7 ± 0.9 µM, respectively.
Take `CON=C1C(=C2C(=O)N(C(C)C)c3cc(Cl)ccc32)Oc2ccc(Cl)cc21` [Compound 60]: the IC50 was found to be 29 ± 1.8 µM in experiment [1] and 5.4 ± 0.6 µM in experiment [2].
As for `CN1C(=O)C(=C2Oc3ccccc3C2=O)c2cnccc21` [Compound 62], the IC50 in experiment [1] was 9.5 ± 2.1 µM; in experiment [2], 11.5 ± 1 µM.
For `CCN1C(=O)C(=C2Oc3ccccc3C2=O)c2c1ccnc2C` [Compound 65], the IC50 is 18.5 ± 1.8 µM in experiment [1] and 40 ± 3.1 µM in experiment [2].
For `CC(C)N1C(=O)C(=C2Oc3ccccc3C2=O)c2cnccc21` [Compound 66], in that order: 7.4 ± 1.7 µM and 1.8 ± 0.6 µM.
For `Cc1nccc2c1C(=C1Oc3ccccc3C1=O)C(=O)N2C(C)C` [Compound 68], in that order: 14 ± 1.7 µM and 18.5 ± 1.8 µM.
For `CCCCN1C(=O)C(=C2Oc3ccccc3C2=O)c2cncc(F)c21` [Compound 70], in that order: 4.5 ± 0.6 µM and 3.6 ± 0.4 µM.
For `CON=C1C(=C2C(=O)N(Cc3ccccc3)c3ccncc32)Oc2ccccc21` [Compound 74], the IC50 was found to be 9.4 ± 0.6 µM in experiment [1] and 19 ± 1.1 µM in experiment [2].
For `O=C1Nc2ncccc2/C1=C1/Oc2ccccc2C1=O` [Compound 75, 1′-oxo-7-azaindirubin], the IC50 in experiment [1] (Homo sapiens) came to 8 ± 1.2 µM; in experiment [2] (Homo sapiens), 10 ± 1.4 µM.
Consider `CCN1C(=O)C(=C2Oc3c(Cl)cccc3C2=O)c2cccnc21` [Compound 79], for which the results for the IC50 in experiment [1] and in experiment [2] were 17.4 ± 1.7 µM and 31.5 ± 2.5 µM, respectively.
As for `CC(C)N1C(=O)C(=C2Oc3ccccc3C2=O)c2cc(Cl)cnc21` [Compound 82], the IC50 stood at 16 ± 2 µM in experiment [1] and 18 ± 2.3 µM in experiment [2].
Take `CCN1C(=O)C(=C2Oc3c(Cl)cccc3C2=O)c2cccnc21` [Compound 85]: the figures for the IC50 in experiment [1] and in experiment [2] were 25 ± 2.7 µM and 18.5 ± 1.5 µM, respectively.
In the same order, the values of `CC(C)N1C(=O)C(=C2Oc3ccccc3C2=NO)c2cc(Cl)cnc21` [Compound 88] are 87 ± 2.1 µM and 80.1 ± 1.5 µM.
For `CON=C1C(=C2C(=O)N(Cc3ccccc3)c3ncccc32)Oc2ccccc21` [Compound 90], in that order: 29 ± 1.8 µM and 30.2 ± 1.5 µM.
In the same order, the values of `O=C1Nc2ccc(F)cc2C1=C1C(=O)Oc2ccccc21` [Compound 92] are 31.7 ± 1.5 µM and 15.2 ± 1.2 µM.
`CN1C(=O)C(=C2C(=O)Oc3ccccc32)c2ccc(Cl)cc21` [Compound 96]: the IC50 in experiment [1] turned out to be 17.2 ± 1.6 µM; in experiment [2], 14.2 ± 1.3 µM.
In the case of `CCN1C(=O)C(=C2C(=O)Oc3ccccc32)c2ccccc21` [Compound 100], the IC50 came to 7 ± 1.4 µM in experiment [1] and 9.2 ± 2 µM in experiment [2].
For `CC(C)N1C(=O)C(=C2C(=O)Oc3ccccc32)c2ccccc21` [Compound 106], in that order: 35.5 ± 2.9 µM and 3.8 ± 1.5 µM.
In the same order, the values of `O=C1Oc2ccccc2C1=C1C(=O)N(C2OC(CO)C(O)C(O)C2O)c2ccccc21` (centres unmarked) [Compound 112] are 90.1 ± 4.5 µM and > 100 µM.
In the case of `COc1ccc2c(c1)C(=C1C(=O)N(Cc3ccccc3)c3ccccc31)C(=O)O2` [Compound 116], the results for the IC50 in experiment [1] and in experiment [2] were 3.7 ± 0.6 µM and 7.4 ± 1.7 µM, respectively.
Take `O=C1Oc2ccccc2C1=C1C(=O)N(Cc2ccccc2)c2ccc(Cl)cc21` [Compound 119]: the values for the IC50 in experiment [1] and in experiment [2] were 39.6 ± 1.7 µM and 27.5 ± 1.3 µM, respectively.
For `O=C1Oc2ccccc2C1=C1C(=O)N(Cc2ccccc2)c2cc(Cl)ccc21` [Compound 120], in that order: 49.1 ± 2.6 µM and 43 ± 2.2 µM.
For `O=C1Nc2ccncc2C1=C1C(=O)Oc2ccccc21` [Compound 121], in that order: 11.6 ± 1.1 µM and 15.6 ± 1.2 µM.
With `CN1C(=O)C(=C2C(=O)Oc3ccccc32)c2cnccc21` [Compound 123], the IC50 in experiment [1] was found to be 5.8 ± 0.8 µM; in experiment [2] it was 9.1 ± 1 µM.
For `CCN1C(=O)C(=C2C(=O)Oc3ccccc32)c2cnccc21` [Compound 127, N-ethyl-1′-oxo-5-azaisoindigo], in that order: 4.7 ± 0.9 µM and 8.4 ± 1.3 µM.
For `CC(C)N1C(=O)C(=C2C(=O)Oc3ccccc32)c2cnc(F)cc21` [Compound 130], the results for the concentration for half-maximal inhibition (IC50) in experiment [1] and in experiment [2] were 28.5 ± 1.6 µM and 19.6 ± 1.3 µM, respectively.
As for `O=C1Oc2ccccc2C1=C1C(=O)N(Cc2ccccc2)c2ccncc21` [Compound 134], the IC50 came out at 11.5 ± 1.2 µM in experiment [1] and 26 ± 2.1 µM in experiment [2].
In the same order, the values of `O=C1Nc2nc(Cl)ccc2C1=C1C(=O)Oc2ccccc21` [Compound 138] are 12.1 ± 1.4 µM and 25.8 ± 1.7 µM.
Consider `Cc1cccc2c1OC(=O)C2=C1C(=O)N(C)c2ncccc21` [Compound 140], for which the IC50 in experiment [1] worked out at 1.9 ± 0.8 µM; in experiment [2], 7.3 ± 0.8 µM.
For `CCN1C(=O)C(=C2C(=O)Oc3ccccc32)c2cc(F)cnc21` [Compound 146], in that order: 26.3 ± 2.1 µM and 35.2 ± 2.3 µM.
For `CC(C)N1C(=O)C(=C2C(=O)Oc3ccc(F)cc32)c2cccnc21` [Compound 150], in that order: 7.9 ± 1.3 µM and 5.6 ± 0.6 µM.
For `O=C1Oc2ccccc2C1=C1C(=O)N(Cc2ccccc2)c2ncccc21` [Compound 152], in that order: 18.2 ± 1.2 µM and 42.3 ± 1.8 µM.
Take `CCN1C(=O)/C(=C2\Nc3ccccc3C2=O)c2ccccc21` [Compound 154, 1-ethyl-indirubin, reference compound]: the IC50 amounted to 19 ± 1.1 µM in experiment [1] (Homo sapiens) and 7.1 ± 0.7 µM in experiment [2] (Homo sapiens).
For `CCN1C(=O)/C(=C2\Nc3ccccc3\C2=N/O)c2ccccc21` [Compound 155, 1-ethyl-indirubin-3′-oxime, reference compound], the concentration for half-maximal inhibition (IC50) in experiment [1] (Homo sapiens) amounted to 30.3 ± 1.5 µM; in experiment [2] (Homo sapiens) it was 7 ± 1.3 µM.
